Experimental data as given in ChEMBL document CHEMBL1201862, “PubChem BioAssay data set” (2004).
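Test compounds were applied to cells in 96-well plates for 48 hours at 5 doses. GI50 is the concentration that inhibits growth by half.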 Calls of active or inactive are those of the source. No stated cut-off is given here; in the data, active = GI50 up to about 1.1 µM and inactive = higher.

Experiments:
Experiment in all cases: inhibition of tumour cell growth, NCI panel, 48 h
BT-549 = test system: BT-549
CCRF-CEM = test system: CCRF-CEM
COLO 205 = test system: COLO 205
EKVX = test system: EKVX
HCC 2998 = test system: HCC 2998
HCT-116 = test system: HCT-116
HOP-62 = test system: HOP-62
K562 = test system: K562
LOX IMVI = test system: LOX IMVI
MCF7 = test system: MCF7
MDA-N = test system: MDA-N
Malme-3M = test system: Malme-3M
NCI-H226 = test system: NCI-H226
OVCAR-4 = test system: OVCAR-4
OVCAR-8 = test system: OVCAR-8
PC-3 = test system: PC-3
SF-268 = test system: SF-268
SK-MEL-2 = test system: SK-MEL-2
SNB-19 = test system: SNB-19
NCI-H522 = test system: NCI-H522

Measured: GI50

O=C(O)C#Cc1ccc([N+](=O)[O-])cc1
inactive: BT-549 > 100 µM | CCRF-CEM > 100 µM | COLO 205 > 100 µM | EKVX > 100 µM | HCC 2998 > 100 µM | HCT-116 > 100 µM | HOP-62 > 100 µM | K562 > 100 µM | LOX IMVI > 100 µM | MCF7 > 100 µM | MDA-N > 100 µM | Malme-3M > 100 µM | NCI-H226 > 100 µM | OVCAR-4 > 100 µM | OVCAR-8 > 100 µM | PC-3 > 100 µM | SF-268 > 100 µM | SK-MEL-2 > 100 µM | SNB-19 > 100 µM

CO[C@@H]1C=C[C@@]23c4cc5c(cc4C(O)N(CC2O)C3C1)OCO5 (stereo not given in full)
inactive: BT-549 2.98 µM | CCRF-CEM 1.79 µM | COLO 205 2.94 µM | EKVX 3.86 µM | HCT-116 2.97 µM | HOP-62 4.43 µM | K562 3.48 µM | LOX IMVI 3.52 µM | MCF7 1.98 µM | MDA-N 3.2 µM | Malme-3M 6.97 µM | NCI-H226 36.5 µM | NCI-H522 3.66 µM | OVCAR-4 2.8 µM | OVCAR-8 3.63 µM | PC-3 3.56 µM | SF-268 7.36 µM | SK-MEL-2 2.99 µM | SNB-19 3.3 µM

CC(=O)c1ccc2c(c1)oc(=O)n2CCN1CCCCC1
inactive: BT-549 > 100 µM | CCRF-CEM 26.3 µM | COLO 205 > 100 µM | EKVX > 100 µM | HCT-116 > 100 µM | HOP-62 > 100 µM | K562 > 100 µM | LOX IMVI > 100 µM | MCF7 > 100 µM | MDA-N > 100 µM | Malme-3M 2.79 µM | NCI-H226 > 100 µM | OVCAR-8 > 100 µM | PC-3 > 100 µM | SF-268 > 100 µM | SK-MEL-2 > 100 µM | SNB-19 > 100 µM

O=S(=O)(O)c1ccc(/N=N/c2ccc(/N=N/c3c(O)ccc4ccc(S(=O)(=O)O)cc34)cc2)cc1
inactive: BT-549 > 100 µM | CCRF-CEM > 100 µM | COLO 205 > 100 µM | EKVX > 100 µM | HCC 2998 > 100 µM | HCT-116 > 100 µM | HOP-62 > 100 µM | K562 > 100 µM | MCF7 > 100 µM | MDA-N > 100 µM | Malme-3M > 100 µM | NCI-H226 > 100 µM | NCI-H522 > 100 µM | OVCAR-4 > 100 µM | OVCAR-8 > 100 µM | PC-3 > 100 µM | SF-268 > 100 µM | SK-MEL-2 > 100 µM | SNB-19 > 100 µM

CN(C)c1ccc(/C=C2\C[C@H]3[C@@H]4CC=C5C[C@@H](O)CC[C@]5(C)[C@H]4CC[C@]3(C)[C@H]2O)cc1
inactive: BT-549 21 µM | COLO 205 11 µM | EKVX 4.81 µM | HCT-116 6.59 µM | HOP-62 29.4 µM | K562 28 µM | LOX IMVI 8.51 µM | MCF7 17.4 µM | MDA-N 20.2 µM | Malme-3M 19.9 µM | NCI-H226 17.4 µM | OVCAR-4 35.6 µM | OVCAR-8 3.84 µM | PC-3 13.1 µM | SF-268 17 µM | SK-MEL-2 20.9 µM | SNB-19 15.7 µM

O=C1C2=C(SCCS2)C(=O)c2c(Sc3ccc(Cl)cc3)c(Sc3ccc(Cl)cc3)c(Sc3ccc(Cl)cc3)c(Sc3ccc(Cl)cc3)c21
inactive: BT-549 > 100 µM | CCRF-CEM 11.6 µM | COLO 205 > 100 µM | EKVX > 100 µM | HCC 2998 > 100 µM | HCT-116 > 100 µM | HOP-62 42.7 µM | MCF7 > 100 µM | MDA-N > 100 µM | Malme-3M 20.2 µM | NCI-H226 40.8 µM | OVCAR-4 > 100 µM | OVCAR-8 > 100 µM | PC-3 > 100 µM | SF-268 > 100 µM | SK-MEL-2 41.9 µM | SNB-19 25.2 µM

O=C(O)c1ccc(/C=N/N=C2c3ccccc3-c3ccccc32)cc1
inactive: BT-549 > 100 µM | CCRF-CEM 44.1 µM | COLO 205 57.8 µM | EKVX > 100 µM | HCT-116 > 100 µM | HOP-62 54.7 µM | K562 55.8 µM | LOX IMVI > 100 µM | MCF7 33.2 µM | MDA-N 50.9 µM | Malme-3M 29 µM | NCI-H226 22.4 µM | NCI-H522 60.7 µM | OVCAR-4 35.8 µM | OVCAR-8 49.8 µM | PC-3 35 µM | SF-268 23.6 µM | SK-MEL-2 27.4 µM | SNB-19 48 µM

CCN1CN(c2ccccc2)C2(CCN(CCCSc3ccc(F)cc3)CC2)C1=O
inactive: BT-549 8.61 µM | CCRF-CEM 4.24 µM | COLO 205 2.41 µM | EKVX 4.89 µM | HCT-116 4.36 µM | HOP-62 4.31 µM | K562 12.9 µM | LOX IMVI 14.3 µM | MCF7 3.48 µM | MDA-N 11.7 µM | Malme-3M 19.9 µM | NCI-H226 16.8 µM | NCI-H522 15 µM | OVCAR-8 14.8 µM | PC-3 11.8 µM | SF-268 13.9 µM | SNB-19 10.1 µM

C=C(C)[C@H]1C=C[C@@H](OC(=O)c2cccnc2)[C@@]23CO[C@@](C)([C@H](OC(=O)c4cccnc4)[C@@]4(OC(C)=O)C[C@H](C)[C@H](OCCC)[C@@H]4[C@H]2OC(C)=O)[C@H]13
inactive: BT-549 > 15 µM | CCRF-CEM 2.84 µM | COLO 205 8.09 µM | EKVX > 15 µM | HCC 2998 > 15 µM | HCT-116 > 15 µM | HOP-62 10.9 µM | K562 7.73 µM | LOX IMVI > 15 µM | MCF7 > 15 µM | MDA-N 10.7 µM | NCI-H226 > 15 µM | NCI-H522 > 15 µM | OVCAR-4 10.3 µM | OVCAR-8 > 15 µM | PC-3 7.74 µM | SF-268 > 15 µM | SK-MEL-2 > 15 µM | SNB-19 > 15 µM

COc1cccc(NC(=O)CC(=O)NN)c1
inactive: BT-549 > 100 µM | CCRF-CEM > 100 µM | COLO 205 > 100 µM | EKVX > 100 µM | HCT-116 > 100 µM | HOP-62 > 100 µM | K562 > 100 µM | LOX IMVI > 100 µM | MCF7 > 100 µM | MDA-N > 100 µM | Malme-3M > 100 µM | NCI-H226 > 100 µM | NCI-H522 > 100 µM | OVCAR-4 > 100 µM | OVCAR-8 > 100 µM | PC-3 > 100 µM | SF-268 > 100 µM | SK-MEL-2 > 100 µM | SNB-19 > 100 µM

Nc1ccc2c(c1)S(=O)(=O)c1cc(N)ccc1-2
inactive: BT-549 > 100 µM | COLO 205 > 100 µM | EKVX > 100 µM | HCC 2998 > 100 µM | HCT-116 > 100 µM | HOP-62 > 100 µM | K562 > 100 µM | LOX IMVI > 100 µM | MCF7 > 100 µM | MDA-N > 100 µM | NCI-H226 > 100 µM | NCI-H522 > 100 µM | OVCAR-4 > 100 µM | OVCAR-8 > 100 µM | PC-3 > 100 µM | SF-268 > 100 µM | SK-MEL-2 > 100 µM | SNB-19 > 100 µM
